Data on 22 compounds can be found in publication PMC4803471 (Anesthesiology, 2016).

Where two headings read alike, the source gives them in different places.

The conditions of series [1]: previously published value; cited from earlier work.
Series [2] addresses α1(L264T)β3γ2 GABAA receptors (Homo sapiens, UniProt P14867+P28472, L291T). Type of series: cell-based. Particulars: for Peak amplitude of evoked current: representative trace, single oocyte.
The subject of series [3] is Sprague-Dawley rats. Particulars: previously published value; cited from earlier work.
Series [4] can be described thus: Octanol:water partition coefficient determination. Particulars: mean ± SD. The class given is physicochemical.
Series [5] has as its system Sprague-Dawley rats. The experiment in a line: Rat loss of righting reflexes. Particulars: intravenous, dose producing LORR in 50% of rats.

α1(L264T)β3γ2 GABAA receptors, sequence (P14867 28-456 L291T): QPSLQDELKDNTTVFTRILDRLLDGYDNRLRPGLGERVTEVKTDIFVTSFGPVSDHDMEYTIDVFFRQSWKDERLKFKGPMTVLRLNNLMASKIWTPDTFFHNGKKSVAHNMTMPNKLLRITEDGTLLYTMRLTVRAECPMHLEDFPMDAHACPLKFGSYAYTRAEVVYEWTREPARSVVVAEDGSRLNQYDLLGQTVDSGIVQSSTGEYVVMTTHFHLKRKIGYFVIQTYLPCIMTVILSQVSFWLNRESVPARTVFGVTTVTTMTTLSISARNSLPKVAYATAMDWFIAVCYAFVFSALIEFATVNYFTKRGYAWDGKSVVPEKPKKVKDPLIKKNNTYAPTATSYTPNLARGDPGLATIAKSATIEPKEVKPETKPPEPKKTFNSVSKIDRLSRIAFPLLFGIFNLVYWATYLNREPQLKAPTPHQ
α1(L264T)β3γ2 GABAA receptors, sequence (P28472 26-473): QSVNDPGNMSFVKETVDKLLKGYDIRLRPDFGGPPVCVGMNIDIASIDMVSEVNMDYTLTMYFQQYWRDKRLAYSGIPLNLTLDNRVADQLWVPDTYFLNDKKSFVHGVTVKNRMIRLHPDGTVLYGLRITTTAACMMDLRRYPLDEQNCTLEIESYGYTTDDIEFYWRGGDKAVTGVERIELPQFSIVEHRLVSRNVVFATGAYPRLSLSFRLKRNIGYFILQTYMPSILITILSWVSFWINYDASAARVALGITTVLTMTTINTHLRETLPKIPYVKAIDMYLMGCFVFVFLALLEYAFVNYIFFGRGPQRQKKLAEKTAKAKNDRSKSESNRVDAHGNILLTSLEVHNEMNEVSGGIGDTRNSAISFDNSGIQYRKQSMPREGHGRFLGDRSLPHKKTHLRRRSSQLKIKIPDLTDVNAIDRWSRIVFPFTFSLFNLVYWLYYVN
α1(L264T)β3γ2 GABAA receptors, sequence (P18507 40-475 partner): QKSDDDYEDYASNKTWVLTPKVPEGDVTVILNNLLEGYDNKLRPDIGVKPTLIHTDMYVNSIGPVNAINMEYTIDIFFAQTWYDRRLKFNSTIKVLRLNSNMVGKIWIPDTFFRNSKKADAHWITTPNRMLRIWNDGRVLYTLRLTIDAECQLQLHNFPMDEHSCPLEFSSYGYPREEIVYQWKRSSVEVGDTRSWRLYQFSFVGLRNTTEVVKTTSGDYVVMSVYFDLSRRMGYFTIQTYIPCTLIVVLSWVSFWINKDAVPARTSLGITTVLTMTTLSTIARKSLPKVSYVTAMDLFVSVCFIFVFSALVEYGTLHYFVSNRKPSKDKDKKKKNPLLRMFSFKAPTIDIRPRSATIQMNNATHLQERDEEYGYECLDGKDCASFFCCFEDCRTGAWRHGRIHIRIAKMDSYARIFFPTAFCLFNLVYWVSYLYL

For the compound `CCOC(=O)c1cccn1[C@H](C)c1ccccc1` [Compound 6, Carboetomidate], the “Octanol:Buffer Partition Coefficient” value in series [1] is on record as 15,000 ± 3,700 (20). Besides, in series [2] (fold higher GABAA receptor potency), the “Potency relative to 4-pyridine carboetomidate” value worked out at 24 fold. In series [2] (normalized to 100 μM GABA, limited by aqueous solubility), the “GABAA receptors activated at the highest concentration studied (at most)” value is listed as at most 68 ± 6%. The “Potency for directly activating GABAA receptors relative to etomidate” value in series [2] (ratio of EC50s) was “approximately 1/8”. The “Hypnotic ED50 (loss of righting reflexes)” value in the series on Sprague-Dawley rats [3] is reported as 7.7 ± 0.8 (18) mg/kg.

Take `COC(=O)CCOC(=O)c1cncn1[C@H](C)c1ccccc1` [Compound 18, Methoxycarbonyl etomidate]: the “Octanol:Buffer Partition Coefficient” value in series [1] was 190 ± 25 (19). In addition, the “Hypnotic ED50 (loss of righting reflexes)” value in the series with Sprague-Dawley rats [3] is 5.3 ± 1.5 (19) mg/kg.

With `CCOC(=O)c1cncn1C1(c2ccccc2)CC1` [Compound 5, Cyclopropyletomidate], in series [1], the “Octanol:Buffer Partition Coefficient” value is listed as 458 ± 45 (13). The “Hypnotic ED50 (loss of righting reflexes)” value in the series on Sprague-Dawley rats [3] is 5.2 ± 0.7 (13) mg/kg.

In series [2], `COC(=O)c1cncn1C(C)c1ccccc1` (centres unmarked) [Compound 2, Metomidate, reference compound] registered an EC50 of 4.4 ± 0.7 µM. Further, the “Octanol:Buffer Partition Coefficient” value in series [4] came to 380 ± 48.

With `COC(=O)CC(C)(C)OC(=O)c1cncn1C(C)c1ccccc1` (stereo not drawn) [Compound 23, β-Dimethyl-methoxycarbonyl etomidate], the “Octanol:Buffer Partition Coefficient” value in series [1] is on record as 1,580 ± 40 (19). Also, in the series with Sprague-Dawley rats [3], the “Hypnotic ED50 (loss of righting reflexes)” value was 1.9 ± 0.3 (19) mg/kg.

As to “Cyclopropyl methoxycarbonyl metomidate [Compound 15]”, the “Octanol:Buffer Partition Coefficient” value in series [1] was 420 ± 11 (19). For the same compound, the “Hypnotic ED50 (loss of righting reflexes)” value in the series with Sprague-Dawley rats [3] is recorded as 0.69 ± 0.04 (19) mg/kg.

Consider `CCOC(=O)c1cncn1[C@H](C)c1ccccc1` [Compound 1, Etomidate, reference compound], for which the “Octanol:Buffer Partition Coefficient” value in series [1] is on record as 731 ± 72 (13). In the series on Sprague-Dawley rats [3], the “Hypnotic ED50 (loss of righting reflexes)” value is recorded as 0.47 ± 0.17 (13) mg/kg.

Turning to `COC(=O)[C@@H](C)OC(=O)c1cncn1[C@H](C)c1ccccc1` [Compound 13, R-methyl-methoxycarbonyl metomidate], the “Octanol:Buffer Partition Coefficient” value in series [1] is on record as 380 ± 15 (19). In addition, the “Hypnotic ED50 (loss of righting reflexes)” value with Sprague-Dawley rats [3] is 9.6 ± 1.9 (19) mg/kg.

In the case of `COC(=O)[C@H](C)COC(=O)c1cncn1[C@H](C)c1ccccc1` [Compound 20, α-(R)-methyl-methoxycarbonyl etomidate], the “Octanol:Buffer Partition Coefficient” value in series [1] is 670 ± 120 (19). For the same compound, the “Hypnotic ED50 (loss of righting reflexes)” value with Sprague-Dawley rats [3] is on record as 5.2 ± 0.5 (19) mg/kg.

On to `COC(=O)C(C)(C)OC(=O)c1cncn1[C@H](C)c1ccccc1` [Compound 14, Dimethyl-methoxycarbonyl metomidate], for which, in series [1], the “Octanol:Buffer Partition Coefficient” value was 660 ± 110 (19). Moreover, in the series on Sprague-Dawley rats [3], the “Hypnotic ED50 (loss of righting reflexes)” value is given as 0.72 ± 0.16 (19) mg/kg.

Take `COC(=O)[C@@H](C)COC(=O)c1cncn1[C@H](C)c1ccccc1` [Compound 19, α-(S)-methyl methoxycarbonyl etomidate]: in series [1], the “Octanol:Buffer Partition Coefficient” value is 530 ± 170 (19). In the series with Sprague-Dawley rats [3], the “Hypnotic ED50 (loss of righting reflexes)” value is given as 3.1 ± 0.4 (19) mg/kg.

For `COC(=O)[C@H](C)OC(=O)c1cncn1[C@H](C)c1ccccc1` [Compound 12, S-methyl-methoxycarbonyl metomidate], the “Octanol:Buffer Partition Coefficient” value in series [1] is recorded as 330 ± 16 (19). Moreover, in the series with Sprague-Dawley rats [3], the “Hypnotic ED50 (loss of righting reflexes)” value is listed as 3.5 ± 0.4 (19) mg/kg.

Regarding “Racemic pentafluoroetomidate [Compound 8]”, the “Hypnotic ED50 (loss of righting reflexes)” value in the series with Sprague-Dawley rats [5] is reported as 1.7 ± 0.4 mg/kg. In addition, in series [4], the “Octanol:Buffer Partition Coefficient” value was 860 ± 260.

`COC(=O)CCOC(=O)c1cncn1[C@@H](c1ccccc1)C(C)C` [Compound 17, (R)-isopropyl-methoxycarbonyl metomidate]: the “Octanol:Buffer Partition Coefficient” value in series [1] is given as 3,830 ± 310 (19). In series [2] (1 μM), the “Peak amplitude of evoked current” value was 0.041 μA. The “Hypnotic ED50 (loss of righting reflexes)” value in the series on Sprague-Dawley rats [3] is listed as 3.6 ± 0.8 (19) mg/kg.

With `COC(=O)COC(=O)c1cncn1[C@H](C)c1ccccc1` [Compound 11, Methoxycarbonyl metomidate], the “Octanol:Buffer Partition Coefficient” value in series [1] is listed as 159 ± 15 (19). In the series on Sprague-Dawley rats [3], the “Hypnotic ED50 (loss of righting reflexes)” value was 11.1 ± 0.8 (19) mg/kg.

With `CCOC(=O)c1cncn1[C@@H](C)c1ccccc1` [Compound 3, S-etomidate], the “Octanol:Buffer Partition Coefficient” value in series [1] is 711 ± 90 (13). Further, the “Hypnotic ED50 (loss of righting reflexes)” value with Sprague-Dawley rats [3] is given as 5.2 ± 0.9 (13) mg/kg.

In the case of S-pentafluoroetomidate [Compound 9], the “EC50 of S-enantiomer relative to racemic mixture” value in series [2] (fold higher EC50) is recorded as 22 fold. In the series with Sprague-Dawley rats [5], the “Hypnotic ED50 (loss of righting reflexes)” value worked out at 11.1 ± 0.8 mg/kg. Moreover, the “Octanol:Buffer Partition Coefficient” value in series [4] is 880 ± 220.

Take `CCOC(=O)c1cncn1Cc1ccccc1` [Compound 4, Dihydrogen etomidate]: the “Octanol:Buffer Partition Coefficient” value in series [1] is on record as 388 ± 32 (13). The “Hypnotic ED50 (loss of righting reflexes)” value in the series with Sprague-Dawley rats [3] was 5.2 ± 1 (13) mg/kg.

`COC(=O)CCOC(=O)c1cncn1[C@H](c1ccccc1)C(C)C` [Compound 16, (S)-isopropyl-methoxycarbonyl metomidate]: the “Octanol:Buffer Partition Coefficient” value in series [1] is 2,860 ± 67 (19). In addition, the “Peak amplitude of evoked current” value in series [2] (1 μM) was determined as 0.29 μA; in series [2] (10 μM), 0.90 μA. Besides, in the series with Sprague-Dawley rats [3], the “Hypnotic ED50 (loss of righting reflexes)” value is reported as 1.2 ± 0.2 (19) mg/kg.

On to 4-Pyridine carboetomidate [Compound 7], for which the “Hypnotic ED50 (loss of righting reflexes)” value in the series on Sprague-Dawley rats [5] turned out to be 25.0 ± 0.3 mg/kg.

As to `COC(=O)C(C)(C)COC(=O)c1cncn1[C@H](C)c1ccccc1` [Compound 21, α-Dimethyl-methoxycarbonyl etomidate], in series [1], the “Octanol:Buffer Partition Coefficient” value is 2,240 ± 150 (19). Besides, the “Hypnotic ED50 (loss of righting reflexes)” value in the series on Sprague-Dawley rats [3] is reported as 2.4 ± 1 (19) mg/kg.

As to `COC(=O)C[C@@H](C)OC(=O)c1cncn1[C@H](C)c1ccccc1` [Compound 22, β-(R)-methyl-methoxycarbonyl etomidate], the “Octanol:Buffer Partition Coefficient” value in series [1] is 500 ± 24 (19). For the same compound, in the series with Sprague-Dawley rats [3], the “Hypnotic ED50 (loss of righting reflexes)” value is reported as 3.5 ± 0.6 (19) mg/kg.

As usually defined, the EC50 is the concentration that produces a half-maximal response.
